Assay results: ChEMBL document CHEMBL2073874, “The multidrug resistance transporter ABCG2 (breast cancer resistance protein 1) effluxes Hoechst 33342 and is overexpressed in hematopoietic stem cells” (Clin Cancer Res, 2002)

Molecular target: T1, Broad substrate specificity ATP-binding cassette transporter ABCG2 (Homo sapiens, UniProt Q9UNQ0)
T1 sequence (Q9UNQ0 whole entry): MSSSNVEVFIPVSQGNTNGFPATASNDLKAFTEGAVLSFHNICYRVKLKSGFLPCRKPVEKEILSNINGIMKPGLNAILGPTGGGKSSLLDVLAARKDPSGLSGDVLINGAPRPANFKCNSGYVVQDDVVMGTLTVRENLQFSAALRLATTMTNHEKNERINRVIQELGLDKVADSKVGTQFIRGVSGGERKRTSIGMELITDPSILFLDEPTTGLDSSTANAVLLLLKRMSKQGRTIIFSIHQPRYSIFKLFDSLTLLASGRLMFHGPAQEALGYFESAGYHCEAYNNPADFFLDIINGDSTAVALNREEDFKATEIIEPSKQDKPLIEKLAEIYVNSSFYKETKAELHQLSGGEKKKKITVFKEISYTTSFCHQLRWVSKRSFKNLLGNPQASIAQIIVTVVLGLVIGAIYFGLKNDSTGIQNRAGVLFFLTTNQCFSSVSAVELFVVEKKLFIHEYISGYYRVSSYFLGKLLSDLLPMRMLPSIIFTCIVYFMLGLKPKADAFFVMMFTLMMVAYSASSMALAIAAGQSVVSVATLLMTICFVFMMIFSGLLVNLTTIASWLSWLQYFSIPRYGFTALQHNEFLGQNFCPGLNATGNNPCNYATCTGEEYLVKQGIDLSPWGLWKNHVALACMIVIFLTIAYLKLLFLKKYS
Assay: TP_TRANSPORTER: efflux in BCRP-expressing MCF-7 cells
Assay type: functional, cell-based
Conditions: mcf7

With `CCOc1ccc(-c2nc3cc(-c4nc5cc(N6CCN(C)CC6)ccc5[nH]4)ccc3[nH]2)cc1` the Activity was “substrate [+]”.
